{"source": "patent US20070270350A1", "about": "“Methods and Compositions for the Prevention and Treatment of Inflammatory Diseases or Conditions” (MUSC FOUNDATION FOR RESEARCH DEVELOPMENT, priority 2003, published 2007)", "key": {"[1]": {"system": "Rat Primary Astrrocytes", "settings": "LPS 1.0 μg/ml, 24 h"}, "[2]": {"system": "EAE in SJL/J mice", "assay": "Active and passive EAE in SJL/J mice treated with lovastatin", "format": "in vivo, mouse", "settings": "i.p. t or 5 mg/kg lovastatin every day, days 0-60 or started on day 10, p<0.001"}, "[3]": {"system": "Microglia", "settings": "10 μM lovastatin or 5 mM NaPA 8 h, LPS 1.0 μg/ml, 24 h"}, "[4]": {"system": "Macrophages", "settings": "10 μM lovastatin or 5 mM NaPA 8 h, LPS 1.0 μg/ml, 24 h"}, "[5]": {"system": "T cells", "assay": "Cytokine production by PLP139-151-primed DLN cells and naïve T cells", "format": "cell-based, mouse", "settings": "lovastatin 10 and 20 μM, p<0.0001", "description": "(A), (C), (E), (G), and (I) DNL cells were isolated on day 10 from PLP139-151 immunized SJL/J mice and cultured in vitro at 5×10^6 cells/ml in the presence of PLP139-151 (5 μg/ml) and lovastatin (10 and 20 μM). (B) (D), (F), (H), and (J) Naïve T cells (98% purified) isolated from lymph nodes were cultured in anti-CD3 and anti-CD28-precoated plates at 1×10^6 cells/ml with lovastatin (10 and 20 μM). The supernatants were collected at 48 h (for IFN-γ and TNF-α) and 120 h (for IL-4, IL-5, and IL-10) for cytokine measurements. […] The values are the means of triplicate determinations at each point, and the error bars represent +/−SD."}, "[6]": {"system": "KA-treated rats", "assay": "KA-induced seizure model (epilepsy model), rat hippocampus", "format": "in vivo", "settings": "statin 10 mg/kg orally, 3 days after KA", "description": "FIG. 45. Experimental design for the use of statins as a therapeutic for kinic acid induced seizures (epilepsy model).\nFIG. 46. […] The rats were orally pre-treated (7 days before) with atorvastatin (LP; 10 mg/kg) prior to KA (10 mg/kg, i.p.). At 3 days after KA injection, neuronal cell death in hippocampus was examined using cresyl violet stain.\nFIG. 47. […] The rats were orally pre-treated (7 days before) with atorvastatin (LP; 10 mg/kg) prior to KA (10 mg/kg, i.p.). At 3 days after KA injection, infiltration of macrophages in the CA1 and CA3 regions of the hippocampus was examined using immunofluorescent labeling against for ED-1, as a marker of monocytes.\nThe rats were orally pre-treated (7 days before) with atorvastatin (LP; 10 mg/kg) prior to KA (10 mg/kg, i.p.). At 3 days after KA injection, neuronal cell death in the CA1 (A) and CA3 (B) regions of the hippocampus was examined using TUNNEL assay.\nFIG. 49. […] The rats were orally pre-treated (7 days before) with lovastatin (Lov; 10 mg/kg) prior to KA (10 mg/kg, i.p.). At 3 days after KA injection, neuronal cell death in hippocampus was examined using cresyl violet stain.\n(§1) FIG. 50A-C. […] The rats were orally pre-treated (7 days before) with atorvastatin (LP; 10 mg/kg) prior to KA (10 mg/kg, i.p.). At 3 days after KA injection, the expression of inflammatory genes (TNF-α, IL-1β, and iNOS) in hippocampus using real time PCR. The expression of each gene was normalized with GAPDH expression.\nas §1, with “51A-C.” for “50A-C.”, “lovastatin (Lov;” for “atorvastatin (LP;”\nSeizure index: stage 1, facial clonus; stage 2, nodding; stage 3, forelimb clonus; stage 4, forelimb clonus with rearing; stage 5, rearing, jumping, and falling. The rats were orally pre-treated (7 days before) with lovastatin or atorvastatin (Lov or LP; 10 mg/kg) prior to KA (10 mg/kg, i.p.)."}, "[7]": {"system": "NF-κβ", "assay": "Nuclear translocation of NF-κβ in anti-CD3/CD28 stimulated naïve T cells", "format": "cell-based, mouse", "settings": "lovastatin 2 h pretreatment, dose-dependent (5-50 μM); anti-CD3 and CD28 4 h"}, "[8]": {"settings": "48 h, PLP-primed and naïve T cells"}}}
{"smiles": "CC[C@H](C)C(=O)O[C@H]1C[C@@H](C)C=C2C=C[C@H](C)[C@H](CC[C@@H]3C[C@@H](O)CC(=O)O3)[C@H]21", "note": "[Lovastatin, lovastatin]", "values": [{"measurement": "TNF-α", "setting": "[1]; 10 μM lovastatin or 5 mM NaPA 8 h, LPS only 5.3 +/− 0.8", "result": "0.3 +/− 0.05 ng/24 h/mg protein"}, {"measurement": "Il-1β", "setting": "[1]; 10 μM lovastatin or 5 mM NaPA 8 h, LPS only 10.4 +/− 1.5", "result": "0.8 +/− 0.1 ng/24 h/mg protein"}, {"measurement": "IL-6", "setting": "[1]; 10 μM lovastatin or 5 mM NaPA 8 h, LPS only 136.5 +/− 16.8", "result": "0.8 +/− 0.1 ng/24 h/mg protein"}, {"measurement": "NO", "setting": "[1]; 10 μM lovastatin or 5 mM NaPA 8 h serum free, LPS only 25.3 +/− 3.2", "result": "5.2 +/− 0.4 n mol/24 h/mg protein"}, {"measurement": "severity of EAE disease (mean clinical scores)", "setting": "[2]", "result": "significantly less"}, {"measurement": "TNF-α", "setting": "[3]; LPS only 14.5 +/− 2.1", "result": "0.9 +/− 0.1 ng/24 h/mg protein"}, {"measurement": "Il-1β", "setting": "[3]; LPS only 28.2 +/− 3.4", "result": "2.1 +/− 0.3 ng/24 h/mg protein"}, {"measurement": "NO", "setting": "[3]; LPS only 81.2 +/− 6.9", "result": "5.9 +/− 0.4 n mol/24 h/mg protein"}, {"measurement": "IL-6", "setting": "[3]; LPS only 295.6 +/− 33.5", "result": "7.8 +/− 1.1 ng/24 h/mg protein"}, {"measurement": "TNF-α", "setting": "[4]; LPS only 18.6 +/− 2.3", "result": "1.2 +/− 0.1 ng/24 h/mg protein"}, {"measurement": "Il-1β", "setting": "[4]; LPS only 34.6 +/− 4.5", "result": "2.3 +/− 0.3 ng/24 h/mg protein"}, {"measurement": "NO", "setting": "[4]; LPS only 118.5 +/− 12.5", "result": "7.2 +/− 0.9 n mol/24 h/mg protein"}, {"measurement": "IL-6", "setting": "[4]; LPS only 350.0 +/− 27.6", "result": "8.3 +/− 0.6 ng/24 h/mg protein"}, {"measurement": "IFN-γ in supernatants", "setting": "[5]; [8]", "result": "significantly reduced"}, {"measurement": "TNF-α in supernatants", "setting": "[5]; [8]", "result": "significantly reduced"}, {"measurement": "IL-4 in supernatants", "setting": "[5]; 120 h", "result": "significantly increased"}, {"measurement": "IL-5 in supernatants", "setting": "[5]; 120 h", "result": "significantly increased"}, {"measurement": "IL-10 in supernatants", "setting": "[5]; 120 h", "result": "significantly increased"}, {"measurement": "KA-induced neuronal cell death in hippocampus (cresyl violet stain)", "setting": "[6]; 7 days before KA 10 mg/kg i.p.", "result": "inhibited"}, {"measurement": "expression of inflammatory genes (TNF-α, IL-1β, and iNOS) induced by KA in hippocampus (real time PCR)", "setting": "[6]; 7 days before KA", "result": "inhibited"}, {"measurement": "nuclear translocation of NF-κβ", "setting": "[7]", "result": "inhibits"}]}
